# Laboratory results from article PMC8795149, “Characterization of a novel non-steroidal glucocorticoid receptor agonist optimized for topical treatment” (Scientific Reports, 2022).
# Tests used:
# skin atrophy = test system: skin atrophy; parameters: method as in PMID 23639214; settings: healthy subjects; cited from earlier work
# atopic dermatitis = test system: atopic dermatitis; parameters: method as in PMID 25614148; settings: atopic dermatitis patients; cited from earlier work
# HPA axis = test system: HPA axis; parameters: method as in PMID 3553247; settings: topical; cited from earlier work
# [1] = target: T1, mineralocorticoid receptor (MR) (Homo sapiens, UniProt P08235); assay: MR agonist assay, MR-luciferase reporter cells; assay type: cell-based; settings: 24 h incubation; 'in contrast' = unlike LEO 134310, which gave no significant activation
# T1 sequence (P08235 1-984): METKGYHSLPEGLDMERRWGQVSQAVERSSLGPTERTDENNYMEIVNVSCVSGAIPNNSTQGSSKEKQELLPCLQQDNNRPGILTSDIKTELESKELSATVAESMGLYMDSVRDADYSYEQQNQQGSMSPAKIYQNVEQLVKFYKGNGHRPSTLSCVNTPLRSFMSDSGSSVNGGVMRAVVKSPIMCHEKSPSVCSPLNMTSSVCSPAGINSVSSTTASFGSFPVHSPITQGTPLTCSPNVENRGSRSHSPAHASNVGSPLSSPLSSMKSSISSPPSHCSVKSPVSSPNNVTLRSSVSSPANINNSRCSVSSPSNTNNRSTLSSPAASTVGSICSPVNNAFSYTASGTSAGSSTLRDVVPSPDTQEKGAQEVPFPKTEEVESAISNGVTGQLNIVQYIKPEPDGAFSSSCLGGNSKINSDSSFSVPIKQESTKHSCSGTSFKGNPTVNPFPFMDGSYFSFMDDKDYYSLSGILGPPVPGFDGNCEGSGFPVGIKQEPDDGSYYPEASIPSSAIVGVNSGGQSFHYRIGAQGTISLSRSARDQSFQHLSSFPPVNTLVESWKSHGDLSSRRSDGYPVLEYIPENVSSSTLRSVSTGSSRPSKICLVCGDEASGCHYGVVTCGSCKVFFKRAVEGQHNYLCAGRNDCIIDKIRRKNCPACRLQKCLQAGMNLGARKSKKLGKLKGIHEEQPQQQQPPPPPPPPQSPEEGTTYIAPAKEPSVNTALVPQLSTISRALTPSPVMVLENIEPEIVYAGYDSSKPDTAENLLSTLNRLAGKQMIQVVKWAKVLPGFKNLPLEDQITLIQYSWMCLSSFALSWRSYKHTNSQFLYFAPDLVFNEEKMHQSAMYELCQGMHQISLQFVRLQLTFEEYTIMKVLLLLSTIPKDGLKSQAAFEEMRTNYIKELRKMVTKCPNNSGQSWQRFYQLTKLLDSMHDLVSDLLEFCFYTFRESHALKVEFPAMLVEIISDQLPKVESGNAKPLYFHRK
# Procedure: Assays were performed at Indigo Biosciences according to standard protocols. In brief, MR-luciferase reporter cells were incubated with medium containing charcoal-stripped fetal bovine serum and incubated with test and reference compounds for 24 h before measuring luminescence. Data were fitted by the means of four parameter logistic regression.
smiles,measurement,setting,value
C[C@@H]1C[C@H]2[C@@H]3C[C@H](F)C4=CC(=O)C=C[C@]4(C)[C@@]3(F)[C@@H](O)C[C@]2(C)[C@@]1(OC(=O)C1C(C)(C)C1(C)C)C(=O)OCC#N [GW870086],Induction of skin atrophy,skin atrophy,not to induce skin atrophy
same,Clinical efficacy,atopic dermatitis,did not achieve significant clinical efficacy
CCC(=O)OCC(=O)[C@@]1(OC(=O)CC)[C@@H](C)C[C@H]2[C@@H]3CCC4=CC(=O)C=C[C@]4(C)[C@@]3(F)[C@@H](O)C[C@@]21C [betamethasone dipropionate],Effect on morning plasma cortisol,HPA axis,reduce morning plasma cortisol significantly
C[C@]12CCC(=O)C=C1CC[C@@H]1[C@@H]2[C@@H](O)C[C@]2(C=O)[C@@H](C(=O)CO)CC[C@@H]12 [aldosterone],Activation of MR (luciferase activity),[1],positive control
